Results reported in US10221177B2 (HYDRA BIOSCIENCES, INC., priority 2014, dated 2019).

Biological target: human TRPA1 (Homo sapiens (Human), UniProt O75762)
Test: In vitro inhibition of human TRPA1, whole cell patch configuration
Format: cell-based
Conditions: current activation 10 μM AITC, tested concentrations 320 pM to 3.2 μM, read-out: hTRPA1 IC50
Protocol: All currents were recorded in whole-cell configuration using EPC-9 and EPC-10 amplifiers and Patchmaster software (HEKA) or similar. […] The standard bath solution contained 150 mM NaCl, 10 mM HEPES, 10 mM glucose, 4.5 mM KCl, 1 mM EGTA, 3 mM MgCl2, with pH adjusted to 7.4 with NaOH. In some instances, 2 mM CaCl2 was added in place of EGTA and the concentration of MgCl2 was reduced to 1 mM.
Data were collected either by continuous recordings at −60 mV or by applying voltage ramps from a holding potential of −40 mV every 4 s. Continuous recordings were collected at 400 Hz and digitally filtered off-line at 10 Hz for presentation. Voltage ramps were applied from −100 mV or −80 mV to +100 mV or +80 mV over the course of 400 ms, and data were collected at 10 kHz and filtered at 2.9 kHz. Inward and outward currents were analyzed from the ramps at −80 and 80 mV, respectively. Liquid junction potential correction was not used.
Solutions were switched using a gravity-fed continuous focal perfusion system. To achieve rapid temperature changes, two temperature control, and perfusion systems were employed simultaneously. […] Temperatures were confirmed using a thermistor (Warner Instruments, TA-29), with temperatures at the recorded cell estimated to be within +/−2° C. of those reported.
The antagonist effects of compounds of Formula (I) against human TRPA1 (“hTRPA1”) in a whole cell patch configuration were evaluated using the in vitro assay described above.

human TRPA1, sequence (O75762 whole entry): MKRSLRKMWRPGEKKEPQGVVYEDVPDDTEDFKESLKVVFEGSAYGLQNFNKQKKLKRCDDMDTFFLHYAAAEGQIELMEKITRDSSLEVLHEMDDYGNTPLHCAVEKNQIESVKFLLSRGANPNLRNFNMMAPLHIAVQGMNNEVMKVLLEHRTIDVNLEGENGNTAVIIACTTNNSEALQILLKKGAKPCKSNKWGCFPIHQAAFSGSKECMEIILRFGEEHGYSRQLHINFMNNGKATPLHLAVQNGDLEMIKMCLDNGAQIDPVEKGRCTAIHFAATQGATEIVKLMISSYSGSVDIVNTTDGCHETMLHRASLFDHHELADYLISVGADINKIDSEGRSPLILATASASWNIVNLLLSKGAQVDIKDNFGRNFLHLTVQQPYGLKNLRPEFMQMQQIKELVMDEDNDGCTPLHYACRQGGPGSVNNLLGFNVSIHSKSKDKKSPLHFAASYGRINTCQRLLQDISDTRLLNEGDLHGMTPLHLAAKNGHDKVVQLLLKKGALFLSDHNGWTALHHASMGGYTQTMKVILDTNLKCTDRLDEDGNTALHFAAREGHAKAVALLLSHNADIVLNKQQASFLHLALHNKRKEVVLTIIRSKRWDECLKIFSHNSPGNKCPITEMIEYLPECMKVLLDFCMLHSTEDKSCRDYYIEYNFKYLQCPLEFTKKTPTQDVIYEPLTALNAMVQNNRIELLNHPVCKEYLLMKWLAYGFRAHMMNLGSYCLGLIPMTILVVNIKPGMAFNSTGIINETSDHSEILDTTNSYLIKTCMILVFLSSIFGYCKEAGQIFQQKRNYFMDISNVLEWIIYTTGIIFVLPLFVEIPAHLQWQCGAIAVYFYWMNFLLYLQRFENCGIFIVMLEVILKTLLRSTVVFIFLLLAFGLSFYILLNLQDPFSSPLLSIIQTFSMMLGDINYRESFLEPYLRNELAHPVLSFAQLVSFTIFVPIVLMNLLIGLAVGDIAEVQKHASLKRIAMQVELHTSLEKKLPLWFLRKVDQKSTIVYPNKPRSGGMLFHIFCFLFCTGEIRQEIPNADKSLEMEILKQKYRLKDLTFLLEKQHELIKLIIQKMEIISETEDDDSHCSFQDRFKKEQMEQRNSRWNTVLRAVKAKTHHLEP

Row | SMILES | IC50
1 | Cc1cc(Cn2c(=O)c3c(ncn3[C@@H](C)C(=O)Nc3cccc(-c4cnc(N5CCC[C@H]5C(F)(F)F)nc4)n3)n(C)c2=O)no1 [Compound 115, (S)-2-(3-methyl-1-((5-methylisoxazol-3-yl)methyl)-2,6-dioxo-2,3-dihydro-1H-purin-7(6H)-yl)-N-(6-(2-((S)-2-(trifluoromethyl)pyrrolidin-1-yl)pyrimidin-5-yl)pyridin-2-yl)propanamide] | 1 nM
2 | Cn1c(=O)n(Cc2ccccn2)c(=O)c2c1ncn2CC(=O)Nc1csc(-c2ccc(Cl)cc2)n1 [Compound 190] | 17 nM
3 | CCC(=O)Cn1c(=O)c2c(ncn2CC(=O)Nc2csc(-c3cnc(C(F)(F)F)c(C)c3)n2)n(C)c1=O [Compound 249, 2-(3-methyl-2,6-dioxo-1-(2-oxobutyl)-2,3-dihydro-1H-purin-7(6H)-yl)-N-(2-(5-methyl-6-(trifluoromethyl)pyridin-3-yl)thiazol-4-yl)acetamide] | 6 nM
4 | Cc1cc(Cn2c(=O)c3c(ncn3CC(=O)Nc3cccc(N4CCC(C(C)(C)F)CC4)n3)n(C)c2=O)no1 [Compound 219, N-(6-(4-(2-fluoropropan-2-yl)piperidin-1-yl)pyridin-2-yl)-2-(3-methyl-1-((5-methylisoxazol-3-yl)methyl)-2,6-dioxo-2,3-dihydro-1H-purin-7(6H)-yl)acetamide] | 23 nM
5 | Cc1cc(Cn2c(=O)c3c(ncn3[C@@H](C)C(=O)Nc3csc(-c4cnc(C(F)(F)F)nc4)n3)n(C)c2=O)no1 [Compound 32, (S)-2-(3-methyl-1-((5-methylisoxazol-3-yl)methyl)-2,6-dioxo-2,3-dihydro-1H-purin-7(6H)-yl)-N-(2-(2-(trifluoromethyl)pyrimidin-5-yl)thiazol-4-yl)propanamide] | 3 nM
6 | CC(=O)Cn1c(=O)c2c(ncn2[C@@H](C)C(=O)Nc2cncc(-c3cnc(N4CC5C(C4)C5(F)F)cn3)n2)n(C)c1=O (stereo partly drawn) [Compound 164, (2S)—N-(5′-(6,6-difluoro-3-azabicyclo[3.1.0]hexan-3-yl)-[2,2′-bipyrazin]-6-yl)-2-(3-methyl-2,6-dioxo-1-(2-oxopropyl)-2,3-dihydro-1H-purin-7(6H)-yl)propanamide] | 21 nM
7 | Cc1cc(Cn2c(=O)c3c(ncn3[C@@H](C)C(=O)Nc3cccc(-c4cnc(C)c(C)c4)n3)n(C)c2=O)no1 [Compound 127, (S)—N-(5′,6′-dimethyl-[2,3′-bipyridin]-6-yl)-2-(3-methyl-1-((5-methylisoxazol-3-yl)methyl)-2,6-dioxo-2,3-dihydro-1H-purin-7(6H)-yl)propanamide] | 25 nM
8 | Cc1noc(Cn2c(=O)c3c(ncn3[C@@H](C)C(=O)Nc3cccc(-c4cnc(N5CC6CC6C5)nc4)n3)n(C)c2=O)n1 (stereo partly drawn) [Compound 167, (2S)—N-(6-(2-(3-azabicyclo[3.1.0]hexan-3-yl)pyrimidin-5-yl)pyridin-2-yl)-2-(3-methyl-1-((3-methyl-1,2,4-oxadiazol-5-yl)methyl)-2,6-dioxo-2,3-dihydro-1H-purin-7(6H)-yl)propanamide] | 4 nM
9 | Cc1cc(Cn2c(=O)c3c(ncn3[C@@H](C)C(=O)Nc3cccc(-c4cnc(C(F)(F)F)c(C)c4)n3)n(C)c2=O)no1 [Compound 129, (S)-2-(3-methyl-1-((5-methylisoxazol-3-yl)methyl)-2,6-dioxo-2,3-dihydro-1H-purin-7(6H)-yl)-N-(5′-methyl-6′-(trifluoromethyl)-[2,3′-bipyridin]-6-yl)propanamide] | 2 nM
10 | Cc1noc(Cn2c(=O)c3c(ncn3CC(=O)Nc3cccc(-c4cnc(C)c(C(F)(F)F)c4)n3)n(C)c2=O)n1 [Compound 241] | 1 nM
11 | Cc1cc(Cn2c(=O)c3c(ncn3[C@@H](C)C(=O)Nc3cccc(-c4cnc(C)c(C(F)(F)F)c4)n3)n(C)c2=O)no1 [Compound 126, (S)-2-(3-methyl-1-((5-methylisoxazol-3-yl)methyl)-2,6-dioxo-2,3-dihydro-1H-purin-7(6H)-yl)-N-(6′-methyl-5′-(trifluoromethyl)-[2,3′-bipyridin]-6-yl)propanamide] | 1 nM
12 | C[C@@H](C(=O)Nc1cncc(-c2cnc(N3CCC[C@@H]3C(F)(F)F)nc2)n1)n1cnc2c1c(=O)n(CC#N)c(=O)n2C [Compound 40, (S)-2-(1-(cyanomethyl)-3-methyl-2,6-dioxo-2,3-dihydro-1H-purin-7(6H)-yl)-N-(6-(2-((R)-2-(trifluoromethyl)pyrrolidin-1-yl)pyrimidin-5-yl)pyrazin-2-yl)propanamide] | 8 nM
13 | CC(=O)Cn1c(=O)c2c(ncn2[C@@H](C)C(=O)Nc2csc(-c3ccc(N4CC5CC5C4)nc3)n2)n(C)c1=O (stereo partly drawn) [Compound 63, (2S)—N-(2-(6-(3-azabicyclo[3.1.0]hexan-3-yl)pyridin-3-yl)thiazol-4-yl)-2-(3-methyl-2,6-dioxo-1-(2-oxopropyl)-2,3-dihydro-1H-purin-7(6H)-yl)propanamide] | 2 nM
14 | CC(=O)CCn1c(=O)c2c(ncn2CC(=O)Nc2cccc(-c3cnc(C)c(C(F)(F)F)c3)n2)n(C)c1=O [Compound 242, 2-(3-methyl-2,6-dioxo-1-(3-oxobutyl)-2,3-dihydro-1H-purin-7(6H)-yl)-N-(6′-methyl-5′-(trifluoromethyl)-[2,3′-bipyridin]-6-yl)acetamide] | 290 nM
15 | C[C@@H](C(=O)Nc1cccc(-c2cnc(N3CC4CC4C3)nc2)n1)n1cnc2c1c(=O)n(CC#N)c(=O)n2C (stereo partly drawn) [Compound 11, (2S)—N-(6-(2-(3-azabicyclo[3.1.0]hexan-3-yl)pyrimidin-5-yl)pyridin-2-yl)-2-(1-(cyanomethyl)-3-methyl-2,6-dioxo-2,3-dihydro-1H-purin-7(6H)-yl)propanamide] | 5 nM
16 | CCC(=O)Cn1c(=O)c2c(ncn2[C@@H](C)C(=O)Nc2ccnc(-c3ccc(N4CC5C(C4)C5(F)F)nc3)n2)n(C)c1=O (stereo partly drawn) [Compound 70, (2S)—N-(2-(6-(6,6-difluoro-3-azabicyclo[3.1.0]hexan-3-yl)pyridin-3-yl)pyrimidin-4-yl)-2-(3-methyl-2,6-dioxo-1-(2-oxobutyl)-2,3-dihydro-1H-purin-7(6H)-yl)propanamide] | 5 nM
17 | C[C@@H](C(=O)Nc1ccnc(-c2cnc(N3CC4C(C3)C4(F)F)nc2)n1)n1cnc2c1c(=O)n(CC#N)c(=O)n2C (stereo partly drawn) [Compound 67, (2S)-2-(1-(cyanomethyl)-3-methyl-2,6-dioxo-2,3-dihydro-1H-purin-7(6H)-yl)-N-(2′-(6,6-difluoro-3-azabicyclo[3.1.0]hexan-3-yl)-[2,5′-bipyrimidin]-4-yl)propanamide] | 7 nM
18 | Cc1cc(Cn2c(=O)c3c(ncn3CC(=O)Nc3cccc(N4CC(F)(F)C4)n3)n(C)c2=O)no1 [Compound 197, N-(6-(3,3-difluoroazetidin-1-yl)pyridin-2-yl)-2-(3-methyl-1-((5-methylisoxazol-3-yl)methyl)-2,6-dioxo-2,3-dihydro-1H-purin-7(6H)-yl)acetamide] | 294 nM
19 | Cn1c(=O)n(Cc2ccccn2)c(=O)c2c1ncn2CC(=O)Nc1csc(-c2ccc(F)c(F)c2)n1 [Compound 178, N-(2-(3,4-difluorophenyl)thiazol-4-yl)-2-(3-methyl-2,6-dioxo-1-(pyridin-2-ylmethyl)-2,3-dihydro-1H-purin-7(6H)-yl)acetamide] | 14 nM
20 | C[C@@H](C(=O)Nc1csc(-c2cnc(N3CCC[C@@H]3C(F)(F)F)nc2)n1)n1cnc2c1c(=O)n(CC#N)c(=O)n2C [Compound 50] | 4 nM
21 | CCC(=O)Cn1c(=O)c2c(ncn2[C@@H](C)C(=O)Nc2ccnc(-c3cnc(N4CC5C(C4)C5(F)F)nc3)n2)n(C)c1=O (stereo partly drawn) [Compound 62, (2S)—N-(2′-(6,6-difluoro-3-azabicyclo[3.1.0]hexan-3-yl)-[2,5′-bipyrimidin]-4-yl)-2-(3-methyl-2,6-dioxo-1-(2-oxobutyl)-2,3-dihydro-1H-purin-7(6H)-yl)propanamide] | 5 nM
22 | CNC(=O)Cn1c(=O)c2c(ncn2[C@@H](C)C(=O)Nc2csc(-c3cnc(N4CC5CC5C4)nc3)n2)n(C)c1=O (stereo partly drawn) [Compound 71, (2S)—N-(2-(2-(3-azabicyclo[3.1.0]hexan-3-yl)pyrimidin-5-yl)thiazol-4-yl)-2-(3-methyl-1-(2-(methylamino)-2-oxoethyl)-2,6-dioxo-2,3-dihydro-1H-purin-7(6H)-yl)propanamide] | 44 nM
23 | CC(=O)Cn1c(=O)c2c(ncn2[C@@H](C)C(=O)Nc2ccnc(-c3cnc(N4CC5CC5C4)nc3)n2)n(C)c1=O (stereo partly drawn) [Compound 143, (2S)—N-(2′-(3-azabicyclo[3.1.0]hexan-3-yl)-2,5′-bipyrimidin-4-yl)-2-(3-methyl-2,6-dioxo-1-(2-oxopropyl)-2,3-dihydro-1H-purin-7(6H)-yl)propanamide] | 20 nM
24 | Cc1noc(Cn2c(=O)c3c(ncn3CC(=O)Nc3cccc(-c4cnc(C)c(F)c4)n3)n(C)c2=O)n1 [Compound 231, N-(5′-fluoro-6′-methyl-[2,3′-bipyridin]-6-yl)-2-(3-methyl-1-((3-methyl-1,2,4-oxadiazol-5-yl)methyl)-2,6-dioxo-2,3-dihydro-1H-purin-7(6H)-yl)acetamide] | 16 nM
25 | Cc1nc2c(c(=O)n(Cc3ccccn3)c(=O)n2C)n1CC(=O)Nc1cccc(-c2ccc(Cl)cc2)n1 [Compound 174, N-(6-(4-chlorophenyl)pyridin-2-yl)-2-(3,8-dimethyl-2,6-dioxo-1-(pyridin-2-ylmethyl)-2,3-dihydro-1H-purin-7(6H)-yl)acetamide] | 24 nM
